ChEMBL document CHEMBL4706744, “Discovery of Selective Transforming Growth Factor β Type II Receptor Inhibitors as Antifibrosis Agents” (ACS Med Chem Lett, 2021)

experiment: Metabolic stability in human liver microsomes assessed as compound remaining at 1 uM incubated for 60 mins; type: ADME, Microsome; conditions: read-out: Stabilty

remaining at 1 h, 1 µM [%] | Structure (SMILES)
47 | COc1cn2ncc(-c3ccnc(OC4CC4)c3)c2nc1-c1cnn(C)c1
35 | COc1cn2ncc(-c3ccnc(OC(C)(C)C)c3)c2nc1-c1cnn(C)c1
40 | COc1cc(-c2cnn3cc(OC)c(C(C)C)nc23)ccn1
43 | COc1cc(-c2cnn3cc(OC)c(-c4cnn(C)c4)nc23)ccn1
13 | COc1cc(-c2cnn3cc(OC)c([C@@H]4COC(C)(C)C4)nc23)ccn1
2 | COc1cnc2c(-c3ccnc(OC)c3)cnn2c1
74 | Cn1cc(-c2nc3c(-c4ccnc(OC5CC5)c4)cnn3cc2OCCC(C)(C)O)cn1
63 | CNc1nc2c(-c3ccnc(OC)c3)cnn2cc1OC
32 | COc1cn2ncc(-c3ccnc(OC(C)C)c3)c2nc1-c1cnn(C)c1
31 | COc1cc(-c2cnn3cc(OC)c(-c4cc(C)no4)nc23)ccn1
54 | Cn1cc(-c2nc3c(-c4ccnc(OC5CC5)c4)cnn3cc2OCCCC(C)(C)O)cn1
66 | COc1cc(-c2cnn3cc(OC)c(C(C)(C)O)nc23)ccn1
16 | COc1cc(-c2cnn3cc(OC)c(N(C)C)nc23)ccn1
29 | COc1cc(-c2cnn3cc(OC)c(C4CCOC4)nc23)ccn1 (centres undefined)
32 | COc1cc(-c2cnn3cc(OC)c(C4CCCC4)nc23)ccn1
53 | Cn1cc(-c2nc3c(-c4ccnc(OC5CC5)c4)cnn3cc2OCC(C)(C)O)cn1
21 | COc1cc(-c2cnn3cc(OC)c([C@H]4COC(C)(C)C4)nc23)ccn1
44 | COc1cc(-c2cnn3cc(OC)c(C)nc23)ccn1

experiment: Metabolic stability in rat liver microsomes assessed as compound remaining at 1 uM incubated for 60 mins; type: ADME, Microsome; conditions: read-out: Stabilty

remaining at 1 h, 1 µM [%] | Structure (SMILES)
32 | COc1cn2ncc(-c3ccnc(OC4CC4)c3)c2nc1-c1cnn(C)c1
61 | COc1cn2ncc(-c3ccnc(OC(C)(C)C)c3)c2nc1-c1cnn(C)c1
14 | COc1cc(-c2cnn3cc(OC)c(C(C)C)nc23)ccn1
56 | COc1cc(-c2cnn3cc(OC)c(-c4cnn(C)c4)nc23)ccn1
30 | COc1cc(-c2cnn3cc(OC)c([C@@H]4COC(C)(C)C4)nc23)ccn1
10 | COc1cnc2c(-c3ccnc(OC)c3)cnn2c1
84 | Cn1cc(-c2nc3c(-c4ccnc(OC5CC5)c4)cnn3cc2OCCC(C)(C)O)cn1
74 | CNc1nc2c(-c3ccnc(OC)c3)cnn2cc1OC
50 | COc1cn2ncc(-c3ccnc(OC(C)C)c3)c2nc1-c1cnn(C)c1
62 | COc1cc(-c2cnn3cc(OC)c(-c4cc(C)no4)nc23)ccn1
64 | Cn1cc(-c2nc3c(-c4ccnc(OC5CC5)c4)cnn3cc2OCCCC(C)(C)O)cn1
92 | COc1cc(-c2cnn3cc(OC)c(C(C)(C)O)nc23)ccn1
3 | COc1cc(-c2cnn3cc(OC)c(N(C)C)nc23)ccn1
34 | COc1cc(-c2cnn3cc(OC)c(C4CCOC4)nc23)ccn1 (centres undefined)
7 | COc1cc(-c2cnn3cc(OC)c(C4CCCC4)nc23)ccn1
81 | Cn1cc(-c2nc3c(-c4ccnc(OC5CC5)c4)cnn3cc2OCC(C)(C)O)cn1
30 | COc1cc(-c2cnn3cc(OC)c([C@H]4COC(C)(C)C4)nc23)ccn1
13 | COc1cc(-c2cnn3cc(OC)c(C)nc23)ccn1

experiment: Solubility of the compound measured after 4 hrs by LC analysis; type: physicochemical; conditions: not given

solubility | Structure (SMILES)
Soluble | Cn1cc(-c2nc3c(-c4ccnc(OC5CC5)c4)cnn3cc2OCCC(C)(C)O)cn1

experiment: Apparent permeability across apical to basolateral side in human Caco2 cells incubated for 2 hrs by LC/MS/MS analysis; type: ADME, cell-based; conditions: Caco-2, read-out: permeability

Papp A→B at 2 h [×10⁻⁶ cm/s] | Structure (SMILES)
1.4 | Cn1cc(-c2nc3c(-c4ccnc(OC5CC5)c4)cnn3cc2OCCC(C)(C)O)cn1

experiment: Mean residence time in Sprague-Dawley rat at 0.3 mg/kg, iv measured up to 24 hrs by LC-MS/MS analysis; type: ADME, organism-based; conditions: in vivo

MRT [h] | Structure (SMILES)
5.5 | Cn1cc(-c2nc3c(-c4ccnc(OC5CC5)c4)cnn3cc2OCCC(C)(C)O)cn1

experiment: Total clearance in Sprague-Dawley rat at 0.3 mg/kg, iv measured up to 24 hrs by LC-MS/MS analysis; type: ADME, organism-based; conditions: in vivo

clearance [mL/min/kg] | Structure (SMILES)
8.17 | Cn1cc(-c2nc3c(-c4ccnc(OC5CC5)c4)cnn3cc2OCCC(C)(C)O)cn1

experiment: Volume of distribution at steady state in Sprague-Dawley rat at 0.3 mg/kg, iv measured up to 24 hrs by LC-MS/MS analysis; type: ADME, organism-based; conditions: in vivo, read-out: Vdss

Vd [L/kg] | Structure (SMILES)
2.7 | Cn1cc(-c2nc3c(-c4ccnc(OC5CC5)c4)cnn3cc2OCCC(C)(C)O)cn1

experiment: AUC in mouse at 1 mg/kg, po by LC/MS analysis; type: ADME, organism-based; parameters: dose 1 mg/kg; conditions: in vivo

AUC [µM·h] | Structure (SMILES)
2.3 | Cn1cc(-c2nc3c(-c4ccnc(OC5CC5)c4)cnn3cc2OCCC(C)(C)O)cn1

experiment: Half life in mouse at 1 mg/kg, po by LC/MS analysis; type: ADME, organism-based; conditions: in vivo

half-life [min] | Structure (SMILES)
276 | Cn1cc(-c2nc3c(-c4ccnc(OC5CC5)c4)cnn3cc2OCCC(C)(C)O)cn1

experiment: Oral bioavailability in mouse at 1 mg/kg by LC/MS analysis; type: ADME, organism-based; conditions: in vivo

bioavailability [%] | Structure (SMILES)
48 | Cn1cc(-c2nc3c(-c4ccnc(OC5CC5)c4)cnn3cc2OCCC(C)(C)O)cn1
